System: golden hamsters
Assay: Administration test of α-glucosyl-hesperidin on hamsters (serum GOT and GPT, cholesterol-supplemented feed)
Assay type: in vivo, golden hamster
Conditions: compared with hesperidin at equal molar dose
Method: The animal experiment using hamsters was performed to investigate the influences of the intake of α-glucosyl-hesperidin on hepatic functions.
A group of five golden hamsters of five weeks old was fed on liberal amount of “NMF Lab Animal Diet Powder” (produced by Oriental Yeast Co., Ltd.) with the administration of “αG-HESPERIDINPS®” (a powdery α-glucosyl-hesperidin containing […] of α-glucosyl-hesperidin, commercialized by Hayashibara Shoji, Inc.) dissolved in distilled water. α-Glucosyl-hesperidin was administered to the hamsters through a stomach sonde at a dose of 0.25 mmole (193 mg)/kg/body weight every day. After two-week administrations of α-glucosyl-hesperidin, the hamsters were fed for additional three weeks in the same way as described above except that their feed was supplemented with 1% by weight of cholesterol. At four hours after the final administrations, the hamsters were anesthetized and underwent laparotomy, and their large-venous blood samples were taken. After the separation of the hamsters' serums by a conventional method, the levels of GOT and GPT were measured. […] The other group was fed on liberal amount of “NMF Lab Animal Diet Powder” with no administration of the test articles and their blood samples were taken in the same way as describe above, and the serum levels of GOT and GPT were measured to obtain the data before the administrations.

## COc1ccc(C2CC(=O)c3c(O)cc(O[C@@H]4OC(CO[C@@H]5OC(C)[C@H](O)C(O)C5O)[C@@H](COC[C@H]5OC(CO)[C@@H](O)C(O)C5O)C(O)C4O)cc3O2)cc1O (stereo partly drawn) [α-Glucosyl-hesperidin, α-glucosyl-hesperidin]
  effect for keeping hepatic-function indexes (serum GOT, GPT) at a lower level: greater effect than that of hesperidin

Source: patent publication US20100210589A1, “METHOD FOR IMPROVING HEPATIC FUNCTION” (Kabushiki Kaisha Kayashibara Seibutsu Kagaku Kenkyujo, priority 2004, published 2010)
